Tests used:
Assay in all cases: Test D pre-/postemergence plant response
Assay type in all cases: in vivo
[1] = system: Italian ryegrass (Lolium multiflorum); settings: Lolium multiflorum, pre-emergence, Preemergence, scale 0 to 100 (0 no effect, 100 complete control), read-out: Plant response rating, Ryegrass, Italian
Outline: (§1)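 Pre-/post-emergence greenhouse test. Pre: seeded loam+sand, sprayed same day. Post: 1–4 leaf plants (2–18 cm), peat/vermiculite mix. Formulation: non-phytotoxic solvent + surfactant. Scored visually d13–15, 0–100 vs control.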

[2] = system: barnyardgrass (Echinochloa crus-galli); settings: Echinochloa crus-galli, pre-emergence, Preemergence
Outline: as §1

corn (Zea mays) = settings: Zea mays, pre-emergence, Preemergence, scale 0 to 100 (0 no effect, 100 complete control)
Outline: as §1

[3] = system: giant foxtail (Setaria faberii); settings: Setaria faberi, pre-emergence, Preemergence, scale 0 to 100 (0 no effect, 100 complete control), read-out: Plant response rating, Foxtail, Giant
Outline: as §1

[4] = system: morningglory (Ipomoea coccinea); settings: Ipomoea, pre-emergence, Preemergence, scale 0 to 100 (0 no effect, 100 complete control), read-out: Plant response rating, Morningglory
Outline: as §1

[5] = system: oilseed rape (Brassica napus); settings: Brassica napus, pre-emergence, Preemergence, scale 0 to 100 (0 no effect, 100 complete control), read-out: Plant response rating, Oilseed Rape
Outline: as §1

[6] = system: pigweed (Amaranthus retroflexus); settings: Amaranthus retroflexus, pre-emergence, Preemergence, scale 0 to 100 (0 no effect, 100 complete control), read-out: Plant response rating, Pigweed
Outline: as §1

[7] = system: ragweed (common ragweed, Ambrosia elatior); settings: Ambrosia artemisiifolia, pre-emergence, Preemergence, scale 0 to 100 (0 no effect, 100 complete control), read-out: Plant response rating, Ragweed
Outline: as §1

soybean (Glycine max) = settings: Glycine max, pre-emergence, Preemergence, scale 0 to 100 (0 no effect, 100 complete control), read-out: Plant response rating, Soybean
Outline: as §1

[8] = system: waterhemp (common waterhemp, Amaranthus rudis); settings: Amaranthus tuberculatus, pre-emergence, Preemergence, scale 0 to 100 (0 no effect, 100 complete control), read-out: Plant response rating, Waterhemp
Outline: as §1

[9] = system: yellow nutsedge (Cyperus esculentus); settings: Cyperus, pre-emergence, Preemergence, scale 0 to 100 (0 no effect, 100 complete control), read-out: Plant response rating, Nutsedge, Yellow
Outline: as §1

FCc1cc(-c2ccccc2Oc2ncc(Cl)cn2)no1 [Compound 32, 5-chloro-2-[2-[5-(fluoromethyl)-3-isoxazolyl]phenoxy]pyrimidine]
pest or weed control at 8 g/ha ([1]; 8 g ai/ha): 0%
pest or weed control at 16 g/ha ([1]; 16 g ai/ha): 0%
pest or weed control at 31 g/ha ([1]; 31 g ai/ha): 0%
pest or weed control at 62 g/ha ([1]; 62 g ai/ha): 10%
pest or weed control at 62 g/ha ([2]; 62 g ai/ha, read-out: Plant response rating (scale 0 to 100), Barnyardgrass): 98%
pest or weed control at 8 g/ha ([2]; 8 g ai/ha, scale 0 to 100 (0 no effect, 100 complete control), read-out: Plant response rating, Barnyardgrass): 0%
pest or weed control at 16 g/ha ([2]; 16 g ai/ha, scale 0 to 100 (0 no effect, 100 complete control), read-out: Plant response rating, Barnyardgrass): 5%
pest or weed control at 31 g/ha ([2]; 31 g ai/ha, scale 0 to 100 (0 no effect, 100 complete control), read-out: Plant response rating, Barnyardgrass): 55%
Corn plant response rating (crop injury, 0 = no effect, 100 = complete kill) at 8 g/ha (corn (Zea mays); 8 g ai/ha): 0%
Corn plant response rating (crop injury, 0 = no effect, 100 = complete kill) at 16 g/ha (corn (Zea mays); 16 g ai/ha): 0%
Corn plant response rating (crop injury, 0 = no effect, 100 = complete kill) at 31 g/ha (corn (Zea mays); 31 g ai/ha): 0%
Corn plant response rating (crop injury, 0 = no effect, 100 = complete kill) at 62 g/ha (corn (Zea mays); 62 g ai/ha): 0%
pest or weed control at 8 g/ha ([3]; 8 g ai/ha): 0%
pest or weed control at 16 g/ha ([3]; 16 g ai/ha): 35%
pest or weed control at 31 g/ha ([3]; 31 g ai/ha): 85%
pest or weed control at 62 g/ha ([3]; 62 g ai/ha): 95%
pest or weed control at 8 g/ha ([4]; 8 g ai/ha): 0%
pest or weed control at 16 g/ha ([4]; 16 g ai/ha): 0%
pest or weed control at 31 g/ha ([4]; 31 g ai/ha): 5%
pest or weed control at 62 g/ha ([4]; 62 g ai/ha): 0%
plant injury at 8 g/ha ([5]; 8 g ai/ha): 50%
plant injury at 16 g/ha ([5]; 16 g ai/ha): 80%
plant injury at 31 g/ha ([5]; 31 g ai/ha): 100%
plant injury at 62 g/ha ([5]; 62 g ai/ha): 100%
pest or weed control at 8 g/ha ([6]; 8 g ai/ha): 100%
pest or weed control at 16 g/ha ([6]; 16 g ai/ha): 100%
pest or weed control at 31 g/ha ([6]; 31 g ai/ha): 98%
pest or weed control at 62 g/ha ([6]; 62 g ai/ha): 100%
pest or weed control at 8 g/ha ([7]; 8 g ai/ha): 75%
pest or weed control at 16 g/ha ([7]; 16 g ai/ha): 60%
pest or weed control at 31 g/ha ([7]; 31 g ai/ha): 75%
pest or weed control at 62 g/ha ([7]; 62 g ai/ha): 70%
plant injury at 8 g/ha (soybean (Glycine max); 8 g ai/ha): 10%
plant injury at 16 g/ha (soybean (Glycine max); 16 g ai/ha): 15%
plant injury at 31 g/ha (soybean (Glycine max); 31 g ai/ha): 25%
plant injury at 62 g/ha (soybean (Glycine max); 62 g ai/ha): 65%
pest or weed control at 8 g/ha ([8]; 8 g ai/ha): 100%
pest or weed control at 16 g/ha ([8]; 16 g ai/ha): 100%
pest or weed control at 31 g/ha ([8]; 31 g ai/ha): 100%
pest or weed control at 62 g/ha ([8]; 62 g ai/ha): 98%
pest or weed control at 8 g/ha ([9]; 8 g ai/ha): 60%
pest or weed control at 16 g/ha ([9]; 16 g ai/ha): 65%
pest or weed control at 31 g/ha ([9]; 31 g ai/ha): 0%
pest or weed control at 62 g/ha ([9]; 62 g ai/ha): 25%
